# Measurements from patent US8304427B2, “Acylthiourea compound or salt thereof, and use thereof” (Taiho Pharmaceutical Co., Ltd., priority 2008, dated 2012).
# Like-named read-outs stand apart in the source and are kept apart here.
# Key:
# NUGC4 cells = assay: Cell-proliferation inhibitory assay against NUGC4 cells (Crystal Violet); assay type: cell-based; conditions: Homo sapiens, NUGC-4, 72 h; NUGC4, cancer, c-Met status (+), 3 days
# Description: Cell-Proliferation Inhibitory Assay Against NUGC4 Cells (Human Gastric Cancer Cell Strain in Which c-Met is Over-Expressed and Highly Activated), In Vitro Test
# NUGC4 cell suspension (in a 10% FBS-containing RPMI 1640 medium (product of Wako Pure Chemical Industries Ltd.) or a FBS-containing DMEM medium (product of Nacalai Tesque, Inc.)) was inoculated to each well of a 96-well (flat-bottom) microplate in an amount of 2×10^3 cells (0.1 mL), and the plate was incubated in an incubator under 5% CO2 gas atmosphere at 37° C. for one day. Each of the compounds of the present invention and comparative compound 1 was dissolved in dimethyl sulfoxide to a concentration of 30 mM. The solution was diluted with 10% FBS-containing RPMI 1640 or DMEM medium, to a final test compound concentration of 60, 20, 6, 2, 0.6, or 0.2 μM. The thus-prepared test compound solution was added to each well of the NUGC4 cell culture plate at 0.1 mL/well, and the plate was incubated in an incubator under 5% CO2 gas atmosphere at 37° C. for 3 days. After culturing, 25% aqueous glutaraldehyde solution (product of Nacalai Tesque, Inc.) was added to each well at 20 μL, and the plate was left to stand at room temperature for 20 minutes, whereby cells were fixed. Thereafter, the plate was washed with tap water and dried. Then, aqueous 0.05% Crystal Violet/20% methanol solution (product of Wako Pure Chemical Industries Ltd.) was added to each well at 100 μL/well, and the plate was left to stand at room temperature for 20 minutes, whereby cells were stained. Thereafter, the plate was washed with tap water and dried. To each well, 0.05 M NaH2PO4/ethanol (1/1=v/v) (100 μL) was added, to thereby extract Crystal Violet. The absorbance of the extracted Crystal Violet was measured at 540 nm using a microplate reader, and the absorbance was employed as an index for living cell count. Percent inhibition was calculated by the following equation, and the 50% inhibition test compound concentration (IC50 (μM)) was calculated. Percent inhibition (%)=(C−T)/C×100 • T: Absorbance of well to which a test compound was added • C: Absorbance of well to which no test compound was added
# HCT-116 = assay: Cell proliferation inhibition test against c-Met low expressing tumor cells (HCT-116); assay type: cell-based; conditions: for IC50: Homo sapiens, read-out: IC50 HCT-116; for ratio HCT-116: IC50 HCT-116 relative to IC50 NUGC4
# [1] = test system: HAOSMC (human aortic smooth muscle cell); assay: Cell proliferation inhibition test against normal cells HAOSMC; assay type: cell-based; conditions: for IC50: Homo sapiens, 72 h, HAOSMC, normal, c-Met status (−), 3 days, read-out: IC50 HAOSMC; for ratio HAOSMC: IC50 HAOSMC relative to IC50 NUGC4
# Description: [Worded in the source for another cell line; this cell line is reported under the same test.] (§1) The thus-prepared test compound solution was added to each well of the NUGC4 cell culture plate at 0.1 mL/well, and the plate was incubated in an incubator under 5% CO2 gas atmosphere at 37° C. for 3 days. […] Thereafter, the plate was washed with tap water and dried. Then, aqueous 0.05% Crystal Violet/20% methanol solution (product of Wako Pure Chemical Industries Ltd.) was added to each well at 100 μL/well, and the plate was left to stand at room temperature for 20 minutes, whereby cells were stained. Thereafter, the plate was washed with tap water and dried. To each well, 0.05 M NaH2PO4/ethanol (1/1=v/v) (100 μL) was added, to thereby extract Crystal Violet. The absorbance of the extracted Crystal Violet was measured at 540 nm using a microplate reader, and the absorbance was employed as an index for living cell count. […] Percent inhibition (%)=(C−T)/C×100 • T: Absorbance of well to which a test compound was added • C: Absorbance of well to which no test compound was added
# [2] = test system: HMEC (human skin microvascular endothelial cell); assay: Cell proliferation inhibition test against normal cells HMEC; assay type: cell-based; conditions: for IC50: Homo sapiens, 72 h, HMEC, normal, c-Met status (−), 3 days, read-out: IC50 HMEC; for ratio HMEC: IC50 HMEC relative to IC50 NUGC4
# Description: [Worded in the source for another cell line; this cell line is reported under the same test.] as §1
# c-Met [3] = molecular target: T1, c-Met (Homo sapiens, UniProt P08581); assay: c-Met inhibitory assay using AlphaScreen (Method A); assay type: biochemical; set-up: purchased Carna bio Co., Ltd 08-051; conditions: ATP 20 μM
# Description: Inhibitory activity of compounds against c-Met kinase was determined through the following procedures. Method A) c-Met inhibitory assay using AlphaScreen™
# A biotinylated peptide including a phosphorylated site of Pyk2 (Tyr402), which is reported as a bio-substrate in Clin. Cancer Res. vol. […] The mixture was allowed to react at room temperature for 20 minutes. EDTA was added to the reaction mixture to a final concentration of 50 mM, to thereby terminate reaction. […] The reaction was done for one hour at room temperature. Thereafter, the fluorescence intensity from the reaction mixture was measured using a multi-label counter (EnVision™, Perkin Elmer).
# Target sequence in this assay (P08581 956-1390 limits assumed): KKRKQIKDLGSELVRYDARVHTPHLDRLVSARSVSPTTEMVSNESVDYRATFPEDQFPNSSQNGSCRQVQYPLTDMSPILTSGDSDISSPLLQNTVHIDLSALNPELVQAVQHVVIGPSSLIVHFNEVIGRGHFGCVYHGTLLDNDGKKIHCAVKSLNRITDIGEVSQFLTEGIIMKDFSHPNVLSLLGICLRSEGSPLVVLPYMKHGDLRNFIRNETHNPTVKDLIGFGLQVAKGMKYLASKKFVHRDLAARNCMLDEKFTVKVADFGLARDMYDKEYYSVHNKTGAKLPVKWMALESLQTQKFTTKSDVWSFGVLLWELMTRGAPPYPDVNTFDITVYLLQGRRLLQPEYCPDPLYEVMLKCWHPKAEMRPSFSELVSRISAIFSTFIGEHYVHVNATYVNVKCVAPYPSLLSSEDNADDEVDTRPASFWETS
# c-Met [4] = molecular target: T1, c-Met; assay: c-Met inhibitory assay using DeskTop Profiler (Method B); assay type: biochemical; set-up: made in house; conditions: ATP 43 μM
# Description: Method B) c-Met Inhibitory Assay Using DeskTop Profiler
# A dephosphorylation enzyme inhibitor cocktail (PhosSTOP, #4906837, product of Roche) and a protease inhibitor cocktail (Complete, Mini, EDTA-free, #1836170; product of Roche) were added to a reaction buffer (100 mM HEPES (pH: 7.5), 10 mM MgCl2, 0.003% Brij-35, 0.04% Tween, and 1 mM DTT). In the presence of the compound of the present invention, recombinant c-Met (purified product of Taiho Pharmaceutical Co., Ltd.), fluorescence-labeled c-Met substrate peptide (FL-Peptide 2, #760346, Caliper Life Sciences) (final concentration: 1.5 μM), and ATP (final concentration: 43 μM) were added thereto, and the mixture was allowed to react at 28° C. for 90 minutes. EDTA was added to the reaction mixture to a final concentration of 10 mM, to thereby terminate reaction. By use of DeskTop Profiler (#119900, Caliper Life Sciences), each fluorescence intensity of the substrate and that of the phosphorylated product was determined, whereby the amount of the formed phosphorylated product was determined. The compound concentration that realizes 50% inhibition of formation of phosphorylated product was defined as IC50 (μM), and the results are shown in the following Tables.
# Target sequence in this assay (P08581 25-1390): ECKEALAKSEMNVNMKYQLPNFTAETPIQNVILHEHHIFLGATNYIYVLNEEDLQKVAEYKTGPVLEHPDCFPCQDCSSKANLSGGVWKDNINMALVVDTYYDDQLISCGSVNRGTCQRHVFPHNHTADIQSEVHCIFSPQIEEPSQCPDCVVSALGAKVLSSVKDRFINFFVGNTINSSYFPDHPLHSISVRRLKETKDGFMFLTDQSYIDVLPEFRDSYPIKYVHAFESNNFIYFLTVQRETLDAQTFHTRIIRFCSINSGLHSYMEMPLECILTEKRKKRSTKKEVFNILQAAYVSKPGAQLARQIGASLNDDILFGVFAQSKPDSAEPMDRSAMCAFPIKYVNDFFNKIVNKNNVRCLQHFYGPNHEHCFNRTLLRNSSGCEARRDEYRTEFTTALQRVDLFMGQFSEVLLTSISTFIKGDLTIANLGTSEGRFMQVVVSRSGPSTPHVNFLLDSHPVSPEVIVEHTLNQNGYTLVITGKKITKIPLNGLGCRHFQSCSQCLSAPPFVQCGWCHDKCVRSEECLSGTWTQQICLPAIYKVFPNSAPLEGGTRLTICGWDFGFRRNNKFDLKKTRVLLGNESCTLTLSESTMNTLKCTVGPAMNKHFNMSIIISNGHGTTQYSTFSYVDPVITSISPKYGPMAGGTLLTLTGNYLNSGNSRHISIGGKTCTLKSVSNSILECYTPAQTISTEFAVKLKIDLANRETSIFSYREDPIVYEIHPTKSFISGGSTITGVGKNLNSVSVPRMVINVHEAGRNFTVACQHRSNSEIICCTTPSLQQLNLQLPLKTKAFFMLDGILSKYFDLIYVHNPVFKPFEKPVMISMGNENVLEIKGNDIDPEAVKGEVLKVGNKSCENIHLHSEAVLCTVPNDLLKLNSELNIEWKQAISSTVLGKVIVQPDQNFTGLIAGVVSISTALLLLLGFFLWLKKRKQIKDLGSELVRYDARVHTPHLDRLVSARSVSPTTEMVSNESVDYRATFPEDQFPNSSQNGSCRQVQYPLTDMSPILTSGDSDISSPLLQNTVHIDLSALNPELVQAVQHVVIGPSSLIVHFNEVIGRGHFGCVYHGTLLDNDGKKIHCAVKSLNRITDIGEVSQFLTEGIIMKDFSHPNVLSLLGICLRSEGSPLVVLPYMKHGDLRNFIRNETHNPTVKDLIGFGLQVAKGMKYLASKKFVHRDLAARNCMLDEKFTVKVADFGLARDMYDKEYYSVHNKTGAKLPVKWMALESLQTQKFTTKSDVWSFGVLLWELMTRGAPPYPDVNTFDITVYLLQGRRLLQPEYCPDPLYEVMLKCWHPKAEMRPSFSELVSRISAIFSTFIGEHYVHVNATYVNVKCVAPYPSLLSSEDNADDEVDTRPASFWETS
# [5] = 72 h, HCT-116, cancer, c-Met status (−), 3 days
structure (smiles),measurement,setting,value
"COc1cc2nccc(Oc3ccc(NC(=S)NC(=O)Cc4ccccc4)cc3F)c2cc1C(=O)NCCCN1CCCC1=O [Example 5, 4-(2-Fluoro-4-(3-(2-phenylacetyl)thioureido)phenoxy)-7-methoxy-N-(3-(2-oxopyrrolidin-1-yl)propyl)quinoline-6-carboxamide]",IC50,NUGC4 cells,30 nM
same,IC50,HCT-116; [5],29000 nM
same,ratio HCT-116,HCT-116,857
same,IC50,[1],> 30000 nM
same,ratio HAOSMC,[1],>879
same,IC50,[2],23000 nM
same,ratio HMEC,[2],681
same,IC50,c-Met [3],116 nM
"CCNC(=O)N1CCC(NC(=O)c2cc3c(Oc4ccc(NC(=S)NC(=O)Cc5ccccc5)cc4F)ccnc3cc2OC)CC1 [Example 15, N-(1-(Ethylcarbamoyl)piperidin-4-yl)-4-(2-fluoro-4-(3-(2-phenylacetyl)thioureido)phenoxy)-7-methoxyquinoline-6-carboxamide]",IC50,NUGC4 cells,20 nM
same,IC50,HCT-116; [5],> 30000 nM
same,ratio HCT-116,HCT-116,>1584
same,IC50,[1],> 30000 nM
same,ratio HAOSMC,[1],>1584
same,IC50,[2],> 30000 nM
same,ratio HMEC,[2],>1584
same,IC50,c-Met [3],138 nM
"COc1cc2nccc(Oc3ccc(NC(=S)NC(=O)Cc4ccccc4)cc3F)c2cc1C(=O)NCC(=O)N1CCC[C@H]1CO [Example 34, (S)-4-(2-Fluoro-4-(3-(2-phenylacetyl)thioureido)phenoxy)-N-(2-(2-(hydroxymethyl)pyrrolidin-1-yl)-2-oxoethyl)-7-methoxyquinoline-6-carboxamide]",IC50,NUGC4 cells,20 nM
same,IC50,HCT-116; [5],> 30000 nM
same,ratio HCT-116,HCT-116,>2000
same,IC50,c-Met [4],22 nM
"COc1cc2nccc(Oc3ccc(NC(=S)NC(=O)Cc4ccc(F)cc4)cc3F)c2cc1C(=O)NCCN1CCOCC1 [Example 37, 4-(2-fluoro-4-(3-(2-(4-fluorophenyl)acetyl)thioureido)phenoxy)-7-methoxy-N-(2-morpholinoethyl)quinoline-6-carboxamide]",IC50,NUGC4 cells,10 nM
same,IC50,HCT-116; [5],> 30000 nM
same,ratio HCT-116,HCT-116,>3000
same,IC50,c-Met [4],35 nM
"CC[C@@H](CO)NC(=O)c1cc2c(Oc3ccc(NC(=S)NC(=O)Cc4ccc(F)cc4)cc3F)ccnc2cc1OC [Example 38, (S)-4-(2-Fluoro-4-(3-(2-(4-fluorophenyl)acetyl)thioureido)phenoxy)-N-(1-hydroxybutan-2-yl)-7-methoxyquinoline-6-carboxamide]",IC50,NUGC4 cells,40 nM
same,IC50,"HCT-116; HCT-116, 72 h",> 30000 nM
same,ratio HCT-116,HCT-116,>719
same,IC50,c-Met [4],32 nM
"COc1cc2nccc(Oc3ccc(NC(=S)NC(=O)Cc4ccccc4F)cc3F)c2cc1C(=O)NCC(C)(C)O [Example 39, 4-(2-Fluoro-4-(3-(2-(2-fluorophenyl)acetyl)thioureido)phenoxy)-N-(2-hydroxy-2-methylpropyl)-7-methoxyquinoline-6-carboxamide]",IC50,c-Met [4],29 nM
"CC[C@@H](CO)NC(=O)c1cc2c(Oc3ccc(NC(=S)NC(=O)Cc4ccccc4F)cc3F)ccnc2cc1OC [Example 40, (S)-4-(2-Fluoro-4-(3-(2-(2-fluorophenyl)acetyl)thioureido)phenoxy)-N-(1-hydroxybutan-2-yl)-7-methoxyquinoline-6-carboxamide]",IC50,c-Met [4],27 nM
"CC[C@@H](CO)NC(=O)c1cc2c(Oc3ccc(NC(=S)NC(=O)Cc4cccc(F)c4)cc3F)ccnc2cc1OC [Example 41, (S)-4-(2-Fluoro-4-(3-(2-(3-fluorophenyl)acetyl)thioureido)phenoxy)-N-(1-hydroxybutan-2-yl)-7-methoxyquinoline-6-carboxamide]",IC50,c-Met [4],34 nM
"COc1cc2nccc(Oc3ccc(NC(=S)NC(=O)Cc4ccc(Cl)cc4)cc3F)c2cc1C(=O)NCC(C)(C)O [Example 42, 4-(4-(3-(2-(4-Chlorophenyl)acetyl)thioureido)-2-fluorophenoxy)-N-(2-hydroxy-2-methylpropyl)-7-methoxyquinoline-6-carboxamide]",IC50,c-Met [4],45 nM
"CC[C@@H](CO)NC(=O)c1cc2c(Oc3ccc(NC(=S)NC(=O)Cc4ccc(Cl)cc4)cc3F)ccnc2cc1OC [Example 43, (S)-4-(4-(3-(2-(4-Chlorophenyl)acetyl)thioureido)-2-fluorophenoxy)-N-(1-hydroxybutan-2-yl)-7-methoxyquinoline-6-carboxamide]",IC50,c-Met [4],50 nM
COc1cc2nccc(Oc3ccc(NC(=S)NC(=O)Cc4c(F)cccc4F)cc3F)c2cc1C(=O)NCCN1CCOCC1 [Example 44],IC50,c-Met [4],101 nM
COc1cc2nccc(Oc3ccc(NC(=S)NC(=O)Cc4c(F)cccc4F)cc3F)c2cc1C(=O)NCC(C)(C)O [Example 45],IC50,c-Met [4],56 nM
"CNC(=O)c1cc2c(Oc3ccc(NC(=S)NC(=O)Cc4cccc(OC)c4)cc3F)ccnc2cc1OC [Example 46, 4-(2-Fluoro-4-(3-(2-(3-methoxyphenyl)acetyl)thioureido)phenoxy)-7-methoxy-N-methylquinoline-6-carboxamide]",IC50,c-Met [4],85 nM
"CNC(=O)c1cc2c(Oc3ccc(NC(=S)NC(=O)Cc4ccc(C(F)(F)F)cc4)cc3F)ccnc2cc1OC [Example 47, 4-(2-Fluoro-4-(3-(2-(4-trifluoromethylphenyl)acetyl)thioureido)phenoxy)-7-methoxy-N-methylquinoline-6-carboxamide]",IC50,c-Met [4],203 nM
"CNC(=O)c1cc2c(Oc3ccc(NC(=S)NC(=O)Cc4ccccc4)cc3Cl)ccnc2cc1OC [Example 48, 4-(2-Chloro-4-(3-(2-phenylacetyl)thioureido)phenoxy)-7-methoxy-N-methylquinoline-6-carboxamide]",IC50,c-Met [4],34 nM
"CNC(=O)c1cc2c(Oc3ccc(NC(=S)NC(=O)Cc4ccccc4)c(F)c3)ccnc2cc1OC [Example 49, 4-(3-Fluoro-4-(3-(2-phenylacetyl)thioureido)phenoxy)-7-methoxy-N-methylquinoline-6-carboxamide]",IC50,c-Met [4],62 nM
"COc1cc2nccc(Oc3ccc(NC(=S)NC(=O)Cc4ccccc4)cc3F)c2cc1C(=O)N(C)C [Example 50, 4-(2-Fluoro-4-(3-(2-phenylacetyl)thioureido)phenoxy)-7-methoxy-N,N-dimethylquinoline-6-carboxamide]",IC50,c-Met [4],139 nM
